Source: article PMC2947747 (Chembiochem : a European journal of chemical biology, 2008)

Legend:
Experiment in all cases: reverse glycosyl transfer
Format in all cases: biochemical
Settings in all cases: 1 mM GDP, 1 mM MgCl2, pH 8.0, 30 °C; reverse reaction
NysDI-T2 = NysDI-T2 (Streptomyces noursei, UniProt Q9L4W6)
NysDI = NysDI (Streptomyces noursei, UniProt Q9L4W6)
AmphDI = AmphDI (Streptomyces nodosus, UniProt Q93NW9)

## C[C@@H]1[C@H](O)[C@@H](C)/C=C/C=C/C=C/C=C/C=C/C=C/C=C/[C@H](O[C@@H]2O[C@H](C)[C@@H](O)[C@H](N)[C@@H]2O)C[C@@H]2O[C@](O)(C[C@@H](O)C[C@@H](O)[C@H](O)CC[C@@H](O)C[C@@H](O)CC(=O)O[C@H]1C)C[C@H](O)[C@H]2C(=O)O [compound 1, amphotericin B]
NysDI-T2
  reverse glycosyl transfer (deglycosylation), RP-HPLC: reaction reversibility assessed in the presence of AmphDI, NysDI and NysDI-T2
NysDI
  reverse glycosyl transfer (deglycosylation), RP-HPLC: reaction reversibility assessed in the presence of AmphDI, NysDI and NysDI-T2
AmphDI
  reverse glycosyl transfer (deglycosylation), RP-HPLC: reaction reversibility assessed in the presence of AmphDI, NysDI and NysDI-T2
